Data taken from PMC7083565, “In vitro metabolism, reaction phenotyping, enzyme kinetics, CYP inhibition and induction potential of ataluren” (Pharmacology Research & Perspectives, 2020).

Columns and labels:
[1] = Steady-state plasma Cmax in DMD patients; type: in vivo, human
[2] = Plasma protein binding (ultrafiltration), monkey; type: in vitro ADME; conditions: male, cynomolgus, 50 to 50 000 ng/mL, mean ± SD, n = 3, read-out: percentage protein binding (converted)
Description: [^14C]‐Ataluren, at 50, 500, 5000, and 50 000 ng/mL or 0.175, 1.75, 17.5, and 175 µM, in male mouse, rat, dog, monkey, and human plasma, was incubated (n = 3) at 37°C for approximately 15 minutes, transferred into Centrifree® Micropartition Units (30 000 Da molecular weight cutoff, 1 mL capacity; Amicon Inc), and centrifuged at 37°C and 2000 g for approximately 10 minutes so that the amount of the sample filtered was approximately ≤ 20% of the total volume. After centrifugation, the entire ultrafiltrate was weighed and analyzed for radioactivity using liquid scintillation counting. The percent bound = (1‐Cu/Cm)×100, where Cu is the concentration of radioactivity in the ultrafiltrate and Cm is the concentration of radioactivity in the plasma before centrifugation.

[3] = Metabolism of [14C]-ataluren in pooled human liver microsomes with cofactors; type: in vitro ADME
Description: [^14C]‐Ataluren at 1, 10, and 100 μmol/L was incubated (n = 3) with pooled HLM (1 mg protein/mL) at 37 ± 1°C in 0.2 mL incubation mixtures (final volume) containing potassium phosphate buffer (50 mmol/L, pH 7.4), MgCl2 (3 mmol/L), and EDTA (1 mmol/L) with and without cofactors, NADPH‐generating system (1 mmol/L NADP, 5 mmol/L glucose‐6‐phosphate, and 1 unit/mL glucose‐6‐phosphate dehydrogenase), and uridine diphosphate glucuronic acid (UDPGA, 8 mmol/L). [^14C]‐Ataluren was added in DMSO (final percent of 0.1% v/v). Reactions were started by the addition of the cofactors and terminated by the addition of stop reagent (0.2 mL of 2% v/v formic acid/acetonitrile) at 0, 60, and 120 minutes. Precipitated protein was removed by centrifugation (920 g for 10 minutes at 10°C). The supernatant fractions were analyzed by LC/RAM/MS to determine percent loss of substrate in incubations. Detailed LC/MS conditions are summarized in LC‐MS/MS Analysis section. After chromatographic separation, the detected radioactive peaks were integrated, and their identity was confirmed using mass spectrometry analysis. [^14C]‐ataluren remaining at specific timepoint after incubation was compared with the amount of [^14C]‐ataluren at 0 minutes incubation sample in the same matrix (eg, with or without cofactors etc) to calculate the percentage of ataluren remaining. The percentage of [^14C]‐ataluren acyl glucuronide formation at specific timepoint after incubation was calculated using the amount of metabolite formed over the total radioactivity in each sample.
[^14C]‐Ataluren and metabolites were monitored by LC/RAM/MS system, which consisted of two Shimadzu LC‐10ATvp pumps (Shimadzu Scientific Instruments, Columbia, MD, USA), a Shimadzu SIL‐5000 autosampler, an IN/US Systems β‐RAM radiometric detector (LabLogic), and a Sciex API 4000 QTRAP triple quadrupole mass spectrometer (Sciex) equipped with a Turbo Ionspray ionization source operated in negative ionization mode. The Ionspray voltage was set at 4.5 kV with the source temperature at 450 °C. MS/MS was carried out with nitrogen as the collision gas. The column used was a Phenomenex Luna C8, 3 μm, 150 × 3.0 mm column (Phenomenex, Torrance, CA, USA). Mobile phase A consisted of 0.2% formic acid in water and mobile phase B consisted of 0.2% formic acid in acetonitrile. The flow rate was 0.50 mL/min with gradient program as follows: hold isocratic at 5% B for 2 minutes; linear gradient from 5% B to 60% B in 20 minutes; linear gradient from 60% B to 95% B in 5 minutes and hold isocratic at 95% B for 2 minutes; linear gradient from 95% B to 5% B in 0.5 minutes and hold isocratic at […] for 3.5 minutes.

[4] = DMD patients, oral 10, 10, 20 mg/kg/day (morning, mid-day and evening dose); read-out: mean Cmax at the steady state; cited from earlier work
CYP3A4/5 = assay: CYP induction in primary human hepatocytes: CYP3A4/5; type: in vitro ADME; conditions: Testosterone 6β-hydroxylase, 48 hours, n=3
Description: Human hepatocytes isolated from three Caucasian males were transferred to 48‐well collagen‐coated plates at 0.14 × 10^6 cells/well in planting media for attachment. After attachment, planting media was replaced with sandwich media and the cells were incubated until clusters were established. […] The incubation solutions were aspirated and replaced with freshly prepared incubation solutions containing ataluren for an additional 24 hours. […] The incubation solutions were then aspirated and 150 µL of K‐H buffer containing CYP substrates were added. The hepatocytes were incubated for 30 minutes for CYP2C8 (10 µmol/L amodiaquine), 1 hour for CYP3A4 (125 µmol/L testosterone), and 4 hours for CYPs 1A2 (100 µmol/L phenacetin), 2A6 (100 µmol/L coumarin), 2B6 (150 µmol/L bupropion), 2C9 (50 µmol/L tolbutamide), 2C19 (100 µmol/L S‐mephenytoin), and 2E1 (300 µmol/L chlorzoxazone) activity assays. The reactions were stopped by the addition of 0.15 mL of ice‐cold methanol except that coumarin‐treated cells were incubated with β‐glucuronidase and aryl sulfatase for additional 1 hour to free 7‐hydroxycoumarin before the addition of 0.2 mL of ice‐cold methanol. Metabolite formation in incubations with test compounds and control inhibitors was assessed with validated LC‐MS/MS methods for each of the reaction products as described in Table S2. Enzymatic activity for each CYP was calculated using the absolute amount of metabolite formed (pmol) divided by hepatocytes in the incubation (million cells) and the incubation time (minute). The relative fold induction in enzymatic activity was calculated by comparing the rate of metabolite formation for treatment groups to that of the solvent control group (reported as vehicle control%) or positive control group (reported as positive control%).

O=C(O)c1cccc(-c2noc(-c3ccccc3F)n2)c1 [ataluren, Ataluren]
free Cmax at the steady state ([1]; conservative, assuming free fraction value of 1%): ~0.80 µM
free Cmax at the steady state ([1]; using free fraction value of 0.4% as measured): around 0.32 µmol/L
fraction unbound at 15 min [2]: 0.003
ataluren loss ([3]; NADPH fortified HLM, 1, 10 and 100 µmol/L, up to 120 minutes): no ataluren loss was observed
ataluren loss ([3]; UDPGA fortified HLM, 1 µmol/L, 120 minutes, n = 3): 32%
ataluren loss ([3]; UDPGA fortified HLM, 10 µmol/L, 120 minutes, n = 3): 31%
ataluren loss ([3]; UDPGA fortified HLM, 100 µmol/L, 120 minutes, n = 3): 18%
Cmax [4]: ~79.9 µM
Positive control %, Mean (CYP3A4/5; ataluren 4 µM): 0.594%
Vehicle control %, Mean (CYP3A4/5; ataluren 4 µM): 103%
Positive control %, Mean (CYP3A4/5; ataluren 40 µM): 1.52%
Vehicle control %, Mean (CYP3A4/5; ataluren 40 µM): 105%
Positive control %, Mean (CYP3A4/5; ataluren 400 µM): 3.72%
Vehicle control %, Mean (CYP3A4/5; ataluren 400 µM): 109%
